The record followed here is article PMC6037691, “Selenazolyl-hydrazones as Novel Selective MAO Inhibitors With Antiproliferative and Antioxidant Activities: Experimental and In-silico Studies” (Frontiers in Chemistry, 2018).

For orientation: inhibition means the drop in the measured response relative to a control, in per cent. As usually defined, the IC50 is the midpoint of a concentration-inhibition curve. The GI50 is the concentration giving 50% growth inhibition.

Each structure is given as a SMILES string.

One assay deals with T1, MAO A (Homo sapiens, UniProt P21397).
T1 construct: purchased Sigma-Aldrich
T1 sequence (P21397 1-527): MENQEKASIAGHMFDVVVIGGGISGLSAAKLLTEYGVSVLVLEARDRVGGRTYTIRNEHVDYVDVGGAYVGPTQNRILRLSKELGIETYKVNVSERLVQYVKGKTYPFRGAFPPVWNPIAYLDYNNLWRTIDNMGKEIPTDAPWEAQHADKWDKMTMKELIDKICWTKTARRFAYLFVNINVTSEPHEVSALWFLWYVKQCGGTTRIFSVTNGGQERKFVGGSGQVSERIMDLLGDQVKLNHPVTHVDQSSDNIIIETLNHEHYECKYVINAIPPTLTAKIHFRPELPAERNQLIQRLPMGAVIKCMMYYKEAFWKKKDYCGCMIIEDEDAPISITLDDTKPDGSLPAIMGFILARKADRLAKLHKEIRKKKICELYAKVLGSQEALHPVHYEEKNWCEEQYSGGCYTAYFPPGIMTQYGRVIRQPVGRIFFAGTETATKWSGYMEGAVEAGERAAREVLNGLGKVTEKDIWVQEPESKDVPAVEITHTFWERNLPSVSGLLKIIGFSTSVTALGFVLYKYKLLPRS
The experiment in a line: MAO A inhibition, discontinuous fluorimetric kynuramine assay. The assay is classed as biochemical. The settings on record: for inhibition at 1 µM: 1 μM inhibitor, mean ± SD, n = 2, normalized to control. As to the method:
MAO A and B inhibition capacities were investigated using a discontinuous fluorimetric assay (Meiring et al., [2013]) as described previously by using human recombinant membrane-bound MAO purchased from Sigma-Aldrich (Affini et al., [2018]). Briefly, remained enzyme activity with inhibitor, either 1 μM (one-point) or concentrations ranging from 0.0001 to 10 μM, was assessed in the presence of kynuramine [2 × KM, KM = 20 μM (MAO A), KM = 30 μM (MAO B)] in potassium phosphate buffer (pH 7.4). Reactions were started by addition of enzyme and stopped by manual addition of sodium hydroxide (2 N) after 20 min. Enzyme activity was determined by detection of 4-hydroxyquinoline (λEx = 320 nm, λEm = 405 nm). Data were analyzed using GraphPad PRISM 6. For one-point measurements data were calculated as percentage of control and expressed as mean ± standard deviation (%). […] Data were obtained from two (one-point measurements) or at least three (IC50 values) independent experiments, each performed in duplicates.

A short description of assay [1]: DPPH scavenging antioxidant assay. Conditions: concentration providing 50% of radicals scavenging activity; mean ± SD, n = 3. As to the method: The experiments were performed according to the literature protocol (Prior et al., [2005]). All tested compounds were initially dissolved in DMSO. The initial concentration of DPPH in methanol was 6.58 × 10^−5 M. A volume of 140 μL of DPPH solution was placed into a 96-well microplate, and then 10 μL solution of the tested compounds was added. Pure DMSO (10 μL) was used as the control. The absorbance at 517 nm was measured after 30 min period of incubation in the dark at 25°C. The Equation (1) was used for calculation of the scavenging activity:
(1) Scavenging activity (%)=Acontrol- Asample/Acontrol×100
where Asample and Acontrol refer to the absorbances at 517 nm of the sample and control, respectively. IC50 values were calculated from the graph of scavenging activity against the concentrations of the samples. IC50 represents the total antioxidant concentration of the sample which decreases the amount of the initial DPPH radical by 50%. Ascorbic acid (vitamin C) was used as positive control (concentration range 10–500 μM).

For assay [2], the system named is A549 (non-small cell lung). Nature of the assay: Antiproliferative activity, A549. The assay is classed as cell-based, human. Conditions: for GI50: Homo sapiens. How it is done:
(§1) The in vitro antiproliferative activity of investigated compounds was evaluated against six human solid tumor cell lines: A549 (non-small cell lung), HBL-100, (breast), HeLa (cervix), SW1573 (non-small cell lung), as drug sensitive lines, T-47D (breast) and WiDr (colon) as drug resistant lines. These cell lines were a kind gift from Prof. G. J. Peters (VU Medical Center, Amsterdam, The Netherlands). For selectivity studies, the human fibroblasts BJ-hTert cell line was used, which was obtained from Dr. R. Freire (HUC, Tenerife, Canary Islands). Cells were kept in culture medium under standard conditions: RPMI 1640 medium, fetal bovine serum (5%), glutamine (2 mM), penicillin G (100 units/mL) and streptomycin (0.1 mg/mL). Antiproliferative tests were conducted as described earlier (Skehan et al., [1990]; Miranda et al., [2006]). Tested compounds were dissolved in DMSO at an initial concentration of 40 mM. DMSO was used as negative control (0.25% v/v). Antiproliferative activity of the compounds was expressed as GI50, which is the concentration of the compound that inhibits 50% of the culture growth.

A further assay deals with HBL-100 (breast). The experiment in a line: Antiproliferative activity, HBL-100. The settings on record: for GI50: Homo sapiens. The assay is classed as cell-based, human. As to the method: as §1
Assay [3] relates to six human solid tumor cell lines. The experiment in a line: Antiproliferative activity, panel as a whole. Where no limit is named, active and inactive come without a cut-off here. The format is cell-based. On the set-up: key: moderate activity (GI50 = 10–100 μM); good activity (GI50 = 1–10 μM); inactive (GI50 > 100 μM). The settings on record: five cell lines of the six. How it is done: as §1

For `C(=NNc1nc(-c2ccccc2)c[se]1)c1ccccc1` [Compound 1, 2-(2-benzylidenehydrazinyl)-4-phenyl-1,3-selenazole], the inhibition at 1 µM at MAO A is -6.8 ± 12.6%. For the same compound, the IC50 against MAO A (mean, 95% CI, at least three experiments) was > 10 µM. Moreover, in assay [1], it took 8.63 ± 1.66 µM to reach half-maximal inhibition (IC50). Further, in assay [2], the “antiproliferative activity class A549” value is listed as “moderate activity (moderate activity (GI50 = 10–100 μM))” and the 50% growth inhibitory concentration (GI50) worked out at 28 ± 7.1 µM. Besides, in the assay on HBL-100 (breast), the “antiproliferative activity class HBL-100” value was “moderate activity (moderate activity (GI50 = 10–100 μM))” and the GI50 was 91 ± 12 µM.

For the compound `COc1ccc(-c2c[se]c(NN=Cc3ccccc3)n2)cc1` [Compound 1-OMe, 2-(2-benzylidenehydrazinyl)-4-(4-methoxyphenyl)-1,3-selenazole], the inhibition at 1 µM at MAO A was found to be 32.4 ± 3.3%. In addition, the midpoint of inhibition in assay [1], the IC50, lay at 54.3 ± 4.54 µM. Moreover, the GI50 (in assay [2]; in the assay on HBL-100 (breast)) was > 100 µM throughout. Further, the “antiproliferative activity class against five cell lines” value in assay [3] is “inactive”.

Turning to `O=[N+]([O-])c1ccccc1C=NNc1nc(-c2ccccc2)c[se]1` [Compound 2, 2-(2-(2-nitrobenzylidene)hydrazinyl)-4-phenyl-1,3-selenazole], the inhibition at 1 µM at MAO A came to 26.5 ± 3.7%. In assay [1], the IC50 came to 21.9 ± 5.6 µM. Further, in assay [2], the “antiproliferative activity class A549” value is “good activity (good activity (GI50 = 1–10 μM))” and it took 4.9 ± 1.5 µM to inhibit growth by half (GI50). This compound also had a GI50 in the assay on HBL-100 (breast) of 21 ± 8.6 µM.

On to `Cc1ccc(-c2c[se]c(NN=Cc3ccccc3[N+](=O)[O-])n2)cc1` [Compound 2-Me, 2-(2-(2-nitrobenzylidene)hydrazinyl)-4-(p-tolyl)-1,3-selenazole], for which the inhibition at 1 µM against MAO A amounted to 17.2 ± 1.9%. In addition, the half-maximal inhibitory concentration (IC50) in assay [1] came to 20.2 ± 4.3 µM. Also, in assay [2], the “antiproliferative activity class A549” value was “good activity (good activity (GI50 = 1–10 μM))” and the concentration for 50% growth inhibition (GI50) is 8.8 ± 2.2 µM. This compound also showed a 50% growth inhibitory concentration (GI50) in the assay with HBL-100 (breast) of 95 ± 8.1 µM.

Take `COc1ccc(-c2c[se]c(NN=Cc3ccccc3[N+](=O)[O-])n2)cc1` [Compound 2-OMe, 4-(4-methoxyphenyl)-2-(2-(2-nitrobenzylidene)hydrazinyl)-1,3-selenazole]: the inhibition at 1 µM at MAO A is 28 ± 4%. The same compound registered a 50% inhibitory concentration (IC50) in assay [1] of 40.5 ± 3.8 µM. Besides, the 50% growth inhibitory concentration (GI50) in assay [2] is 22 ± 5.6 µM; in the assay on HBL-100 (breast) it was > 100 µM.

For `O=[N+]([O-])c1cccc(C=NNc2nc(-c3ccccc3)c[se]2)c1` [Compound 3, 2-(2-(3-nitrobenzylidene)hydrazinyl)-4-phenyl-1,3-selenazole], the inhibition at 1 µM against MAO A was 32.7 ± 6.2%. The compound further displayed an IC50 in assay [1] of 174 ± 11.6 µM. Besides, the “antiproliferative activity class A549” value in assay [2] was “good activity (good activity (GI50 = 1–10 μM))”. For the same compound, the concentration for 50% growth inhibition (GI50) in assay [2] stood at 6.1 ± 0.8 µM; in the assay on HBL-100 (breast) it was 28 ± 0.8 µM.

Regarding `Cc1ccc(-c2c[se]c(NN=Cc3cccc([N+](=O)[O-])c3)n2)cc1` [Compound 3-Me, 2-(2-(3-nitrobenzylidene)hydrazinyl)-4-(p-tolyl)-1,3-selenazole], the inhibition at 1 µM against MAO A was found to be 13.4 ± 2.4%. In assay [1], this compound had a 50% inhibitory concentration (IC50) of 152 ± 10.1 µM. Moreover, the 50% growth inhibitory concentration (GI50) in assay [2] is 44 ± 15 µM; in the assay with HBL-100 (breast) it was 60 ± 9.5 µM.

As for `COc1ccc(-c2c[se]c(NN=Cc3cccc([N+](=O)[O-])c3)n2)cc1` [Compound 3-OMe, 4-(4-methoxyphenyl)-2-(2-(3-nitrobenzylidene)hydrazinyl)-1,3-selenazole], the inhibition at 1 µM against MAO A came to 31.2 ± 1.6%. Further, in assay [1], it took 298 ± 14.8 µM to reach half-maximal inhibition (IC50). Further, the GI50 in assay [2] is 52 ± 1 µM; in the assay on HBL-100 (breast), > 100 µM.
